Legend:
[1] = target: HLA-A0201 (Homo sapiens, UniProt P04439, D140Y/D185E/D98H/E176V/E277Q/G131W/G231S/I119V/I121R/I166T/I218V/L300P/L318F/N151K/N90K/P208A/P217A/Q86G/Q94H/R138H/R169H/T345S); assay type: binding
[2] = test system: SVYDFFVWL (TRP-2 180-188) reactive T cells; experiment: T cell activation time course assay, IFNγ production (FACS), TRP-2 epitope; conditions: for % CD8+ T cells producing IFN-γ peptide concentrations in picomolar 24H 0.5 / Geometric mean IFN-γ in arbitrary fluorescence units peptide concentrations in picomolar 24H 0.5 / % CD8+ T cells producing IFN-γ peptide concentrations in picomolar 48H 0.5 / Geometric mean IFN-γ in arbitrary fluorescence units peptide concentrations in picomolar 48H 0.5: peptide 0.5 pM; for % CD8+ T cells producing IFN-γ peptide concentrations in picomolar 24H 50 / Geometric mean IFN-γ in arbitrary fluorescence units peptide concentrations in picomolar 24H 50 / % CD8+ T cells producing IFN-γ peptide concentrations in picomolar 48H 50 / Geometric mean IFN-γ in arbitrary fluorescence units peptide concentrations in picomolar 48H 50: peptide 50 pM; for % CD8+ T cells producing IFN-γ peptide concentrations in picomolar 24H 5·10^3 / Geometric mean IFN-γ in arbitrary fluorescence units peptide concentrations in picomolar 24H 5·10^3 / % CD8+ T cells producing IFN-γ peptide concentrations in picomolar 48H 5·10^3 / Geometric mean IFN-γ in arbitrary fluorescence units peptide concentrations in picomolar 48H 5·10^3: peptide 5·10^3 pM

| Substance | % inhibition at T=4H and T=24H FP 4h [1] | % inhibition at T=4H and T=24H FP 24h [1] | % CD8+ T cells producing IFN-γ peptide concentrations in picomolar 24H 0.5 [2] | Geometric mean IFN-γ in arbitrary fluorescence units peptide concentrations in picomolar 24H 0.5 [2] | % CD8+ T cells producing IFN-γ peptide concentrations in picomolar 24H 50 [2] | Geometric mean IFN-γ in arbitrary fluorescence units peptide concentrations in picomolar 24H 50 [2] | % CD8+ T cells producing IFN-γ peptide concentrations in picomolar 24H 5·10^3 [2] | Geometric mean IFN-γ in arbitrary fluorescence units peptide concentrations in picomolar 24H 5·10^3 [2] | % CD8+ T cells producing IFN-γ peptide concentrations in picomolar 48H 0.5 [2] | Geometric mean IFN-γ in arbitrary fluorescence units peptide concentrations in picomolar 48H 0.5 [2] | % CD8+ T cells producing IFN-γ peptide concentrations in picomolar 48H 50 [2] | Geometric mean IFN-γ in arbitrary fluorescence units peptide concentrations in picomolar 48H 50 [2] | % CD8+ T cells producing IFN-γ peptide concentrations in picomolar 48H 5·10^3 [2] | Geometric mean IFN-γ in arbitrary fluorescence units peptide concentrations in picomolar 48H 5·10^3 [2] |
| --- | --- | --- | --- | --- | --- | --- | --- | --- | --- | --- | --- | --- | --- | --- |
| [am-phg][NVA]YDFFVW[PRG] | 88% | 80% | 0% | 64 arbitrary fluorescence units | 7% | 77 arbitrary fluorescence units | 26% | 181 arbitrary fluorescence units | 0% | 71 arbitrary fluorescence units | 1% | 57 arbitrary fluorescence units | 23% | 132 arbitrary fluorescence units |
| [am-phg][2-AOC]YDFFVWL | 94% | 87% | 0% | 78 arbitrary fluorescence units | 12% | 82 arbitrary fluorescence units | 31% | 215 arbitrary fluorescence units | 0% | 88 arbitrary fluorescence units | 1% | 70 arbitrary fluorescence units | 30% | 143 arbitrary fluorescence units |
| [PHG][2-AOC]YDFFVW[PRG] | 83% | 78% | 0% | 95 arbitrary fluorescence units | 1% | 68 arbitrary fluorescence units | 20% | 120 arbitrary fluorescence units | 1% | 79 arbitrary fluorescence units | 0% | 78 arbitrary fluorescence units | 0% | 78 arbitrary fluorescence units |
| [CSME][CpALA]YDFFVW[PRG] | 85% | 83% | 1% | 69 arbitrary fluorescence units | 5% | 73 arbitrary fluorescence units | 27% | 147 arbitrary fluorescence units | 0% | 58 arbitrary fluorescence units | 1% | 68 arbitrary fluorescence units | 14% | 105 arbitrary fluorescence units |
| [PHG][NVA]YDFFVW[PRG] | 83% | 78% | 1% | 89 arbitrary fluorescence units | 6% | 73 arbitrary fluorescence units | 33% | 183 arbitrary fluorescence units | 0% | 66 arbitrary fluorescence units | 1% | 61 arbitrary fluorescence units | 21% | 139 arbitrary fluorescence units |

Source: patent EP2649091B1, “IMMUNE RESTRICTED PEPTIDES WITH INCREASED EFFICACY” (Stichting Het Nederlands Kanker Instituut, priority 2010, dated 2012)
